According to patent US5321037A, “Isoxazole derivatives for use as cerebro-active drugs and central muscle relaxants” (Sankyo Company, Limited, priority 1986, dated 1994):
Where a name gives a salt, the structure may show the parent alone. Read-outs that look alike come from different tables or passages of the source. Values belong to the molecule of their own block, whether it stands above or below them.

Assays:
[1] = test system: ischemia-induced neurological symptoms in SHR SP; assay: Improvement in ischemia-induced neurological symptoms in Spontaneously Hypertensive Rats Stroke Prone (SHR SP) caused by ligation of the bilateral common carotid arteries; format: in vivo, rat (SHR SP)
Method: The test animals employed were male adult SHR SPs (13 or 15 weeks old). They were used in groups each consisting of about 10 animals. Under halothane anesthesia, both common carotid arteries of each animal were ligated to prepare a brain ischemia model. The halothane anesthesia was stopped immediately after the ligation, and then the time taken to recover the righting reflex, the onset time of convulsions and the survival time were determined. The test solution was prepared in the same manner as described in Experiment 1 and was administered to the animal intraperitoneally 30 minutes before the ligation. A 0.5% CMC solution was administered to the control group in the same manner. The statistical analysis was carried out in a similar manner to that in Experiment 1. The statistical analysis of the survival rate was carried out by the X^2 test.

[2] = test system: ischemia-induced neurological symptoms in the Mongolian Gerbil; assay: Improvement of ischemia-induced neurological symptoms in the Mongolian gerbil caused by ligation of the bilateral common carotid arteries for 30 minutes; format: in vivo; settings: 100 mg/kg i.p. upon recommencement of blood flow
Method: The test animals employed were male adult Mongolian gerbils (16-20 weeks old). These were used in groups each consisting of from 10 to 20 animals. The bilateral common carotid arteries were occluded for 30 minutes under anesthesia with pentobarbital (30 mg/kg, intraperitoneally) and halothane (it was introduced to a mixture of 95% oxygen and 5% carbon dioxide at a concentration of 1.5% by volume) and then the occlusion was released to allow the blood to flow. The animal was then placed in a supine position, and we measured (1) the time taken from recommencement of blood flow until convulsions occurred and (2) the survival time. Observations to determine the onset time of convulsions and the survival time were continued for 6 and 7 hours, respectively, after recommencement of blood flow. […] The compound to be tested was suspended in a 0.5% w/v carboxymethyl cellulose (CMC) aqueous solution and administered intraperitoneally upon recommencement of blood flow in the common carotid arteries. On the other hand, a 0.5% CMC solution containing no test compound was administered likewise to a control group. Statistical analysis was carried out using the Mann-Whitney U-test between the control group and the test group.

spinal reflex in cats = assay: Effect on spinal reflex in cats; format: in vivo, cat
Method: Adult cats weighing 3.0 to 4.5 kg each were used. After induction of anesthesia with ether, the animal was anesthetized by intravenous injection of 50 mg/kg of a-chloralose. After the trachea was cannulated, the animal was fixed on a stereotaxic apparatus, and the lumbosacral spinal cord was exposed by laminectomy from L3 to S1. The ventral roots of the right side were cut from L6 to S1 as distal as possible and the cut ends were ligated with cotton thread previously immersed in Ringer's solution. The exposed spinal cord was covered with warmed mineral oil and maintained at 37° C. The ventral root, either L7 or S1, was fixed on a pair of platinum wire electrodes. A pair of collar-type electrodes was implanted on the ipsilateral tibial nerve and the saphenous nerve, for stimulation. After completion of all these operations, the cat was immobilized with pancronium bromide (0.5 mg/kg, i.v.) and maintained by artificial respiration (40/minute). Recording was started at least 2 hours after withdrawal of ether anesthesia. A single square pulse (0.01 to 0.1 msecond pulse width, supramaximal intensity) was applied to the nerve at a frequency of 0.3 Hz from an electronic stimulator. […] In a similar manner to Experiment 2, the blood pressure, heart beat and body temperature of the animal were recorded and monitored. Compounds to be tested were also administered in a similar manner.

[3] = test system: decerebrate rigidity (cats); assay: Suppression of decerebrate rigidity (cats); format: in vivo, cat
Text: Adult cats each weight 3.0 to 4.5 kg were used. Under ether anesthesia, the trachea was cannulated and the common carotid arteries were ligated at both sides. The cat was decerebrated by suction at the precollicular level. Ether anesthesia was then immediately discontinued. A pair of needle electrodes was inserted into the neck muscle in order to pick up any EMG muscular discharges. The EMG discharge was amplified and recorded on a pen-writing recorder, along with an integration of the EMG discharge. Recording was started at least 2 hours after withdrawal of anesthesia. Blood pressure induced from the femoral artery, as well as body temperature and heart beat, were recorded and monitored throughout the experiment.
After stable EMG discharges were obtained, the test compounds suspended in 0.5% CMC solution were administered into the duodenum through a previously inserted cannula. The effect of the test compound was expressed as the ratio of the integrated EMG discharge after administration relative to the value before administration.

thiopental anesthesia = assay: Potentiation of thiopental anesthesia (mice); format: in vivo, mouse (ddY strain); settings: for Anesthesia time: thiopental 30 mg/kg after one hour
Method: In the test method, male adult mice of ddY strain each weighing 20 to 30 g were used as divided groups each made up of 5 to 7 mice. Test compounds suspended in 0.5% CMC solution were orally administered. After one hour, thiopental (30 mg/kg) was injected into the tail vein, and the time required for the mouse to recover the righting reflex was measured.

[4] = test system: decerebrate rigidity in rats; assay: Suppression of decerebrate rigidity in rats; format: in vivo, rat
Text: The suppression of decerebrate rigidity in laboratory animals, such as rats, is a well known model for control of human spasticity and/or rigidity.
In the test method, a rat was anesthetized with halothane and fixed on a stereotaxic apparatus (SR-5, Narishige). In accordance with the brain atlas by Pellegrino et al., [L. J. Pellegrino, A. S. Pellegrino & A. J. Cushman: A Stereotaxic Atlas of the Rat Brain, Plenum Press, New York and London (1967)], an electrode 0.7 mm in diameter, which was insulated except for 1 mm at the tip, was inserted bilaterally into the midbrain reticular formation (AP: 0, L: ±1.5, H: -3.0). A clip serving as the reference electrode was fixed on the temporal muscle. Through these electrodes, a high frequency electric current (100 KHz, 10 to 20 mA) was applied from a lesion generator (Glass Co., LM4A) for 2 to 3 minutes to cauterize electrically this brain region.
The rat was then immediately set free from the stereotaxic apparatus. A polyethylene cannula was inserted into the duodenum and fixed with an acrylic resin (Aron Alfa, Sankyo Co., Ltd.). After completion of these operations, halothane anesthesia was immediately discontinued.
After 1.5 hours, when the animal awoke from the anesthesia, the rat was fixed on an apparatus devised in our laboratory for a hind leg fixation. Both hind legs were fixed at the anterior part of the ankle joints. Both hindlimb paws were then pushed in 4 mm for 6 seconds in every minute. The resulting repulsive tension was drawn on a polygraph through a strain gauge.
The test compounds were suspended in a 0.5% w/v CMC (carboxymethyl cellulose) aqueous solution and were administered orally (p.o.) or intraperitoneally (i.p.).
The results are summarized in the following Table 7, where the compounds of the present invention are identified by the number of the foregoing Example in which each was prepared, Compound X is the known compound eperisone hydrochloride, and Compound Y is the known compound afloqualone.

[5] = test system: decerebrate rigidity in rats; assay: Suppression of decerebrate rigidity in rats; format: in vivo, rat; remark: listed apart in the source
[6] = test system: survival time under hypoxic conditions; assay: Effect on survival time under hypoxic conditions; format: in vivo, mouse (ddY strain); settings: 4% oxygen, 96% nitrogen
Text: The test animals employed were male adult mice (5 weeks old and about 30 g body weight) of the ddY strain. The animals were employed in groups, each containing from 7 to 17 animals. Each animal was given intraperitoneally a test compound in suspension (as in the preceding Experiments). Thirty (30) minutes after this administration, 2 or 3 animals were placed in a 1.5 liter gas chamber made of acrylate resin, and a mixture of 4% by volume oxygen and 96% nitrogen was supplied at the rate of 10 liters/minute. The time of death of the animal was measured (determined by the cessation of respiration).

[7] = 30 mg/kg i.p. 30 minutes before ligation
[8] = 100 mg/kg i.p. 30 minutes before ligation
[9] = 100 mg/kg, administered as in Experiment 2
[10] = 100 mg/kg, after administration
[11] = Rattus norvegicus, po, 30 mg/kg p.o., read-out: Maximum inhibition

Compound: O=c1c(Cl)c(-c2ccccc2)on1CC(O)CN1CCOCC1 (stereo not drawn) [2a hydrochloride]
Onset time of convulsions [1, 7]: 99.8 ± 27.8 min
Recovery time of righting reflex [1, 7]: 8.0 ± 1.7 min
Survival time [1, 7]: 232.1 ± 35.8 min
Onset time of convulsions [1, 8]: 103.5 ± 16.2 min
Recovery time of righting reflex [1, 8]: 7.6 ± 1.7 min
Survival time [1, 8]: 233.0 ± 28.7 min
Onset time of convulsions [2]: 289.4 min
Survival time [2]: 375.7 min

Anesthesia time (thiopental anesthesia; 50 mg/kg p.o.): 288.5 ± 20.1 s
Anesthesia time (thiopental anesthesia; 100 mg/kg p.o.): 237.3 ± 25.5 s
Compound: O=c1cc(-c2ccccc2)on1CC(O)CN1CCOCC1 (stereo not drawn) [Compound 1a]
Duration of the effect on spinal reflexes (spinal reflex in cats; 100 mg/kg): about 2 hours
Monosynaptic reflex (spinal reflex in cats; [9]): little affected
Polysynaptic reflex (spinal reflex in cats; [9]): remarkably inhibited
Spino-bulbo-spinal reflex (spinal reflex in cats; [9]): remarkably inhibited
Onset of the effect on spinal reflexes (spinal reflex in cats; [10]): 5 min
Time of maximum effect on spinal reflexes (spinal reflex in cats; [10]): 30 min
Mechanism shown by spinal reflexes (spinal reflex in cats; in vivo): interneuron blockers
Inhibition of decerebrate rigidity ([3]; 100 mg/kg intraduodenal, 5 minutes after administration): About 30%
Inhibition of decerebrate rigidity ([3]; 100 mg/kg intraduodenal, 1 hour after administration): about 65%
Duration of inhibitory effects ([3]; 100 mg/kg intraduodenal, throughout the observation period): ≥ 2 h
Side effects and duration of action compared with eperisone hydrochloride ([3]; compared with eperisone hydrochloride): weaker in side effects and of longer action than eperisone hydrochloride
Drowsiness (the adverse effect), implied (thiopental anesthesia; compared with afloqualone): induce drowsiness (the adverse effect) less than afloqualone
Prolongation of the duration of thiopental-induced anesthesia, in words (thiopental anesthesia; in comparison with eperisone hydrochloride): did not significantly prolong the duration of thiopental-induced anesthesia
Onset of the effect ([4]; 10 mg/kg i.d.): 10 min
Duration of the effect ([4]; 30 mg/kg i.d.): > 180 min
Onset of the effect ([4]; 30 mg/kg i.d.): 5 min
Duration of the effect ([4]; 30 mg/kg i.p.): > 120 min
Onset of the effect ([4]; 30 mg/kg i.p.): 5 min
Duration of the effect ([4]; 30 mg/kg p.o.): > 160 min
Onset of the effect ([4]; 30 mg/kg p.o.): 10 min
inhibition in vivo at 10 mg/kg ([4]; Rattus norvegicus, intraduodenal, 10 mg/kg i.d., read-out: Maximum inhibition): 20%
inhibition in vivo at 30 mg/kg ([4]; Rattus norvegicus, ip, 30 mg/kg i.p., read-out: Maximum inhibition): 60%
inhibition in vivo at 30 mg/kg [4, 11]: 95%
Duration of the effect ([5]; 10 mg/kg i.d.): > 90 min
inhibition in vivo at 30 mg/kg ([5]; Rattus norvegicus, intraduodenal, 30 mg/kg i.d., read-out: Maximum inhibition): 60%

Compound: NC(=O)OCC(O)COc1noc2ccc(Cl)cc12 (stereo not drawn) [Example 3, 3-(3-Carbamoyloxy-2-hydroxypropoxy)-5-chloro-1,2-benzisoxazole]
Onset time of convulsions and survival time, in words ([1]; 30 mg/kg): prolonged onset time of convulsions, survival time significantly
Onset time of convulsions [1, 7]: 106.5 ± 9.9 min
Recovery time of righting reflex [1, 7]: 7.1 ± 0.9 min
Survival rate [1, 7]: 80.0%
Survival time [1, 7]: 392.2 ± 21.2 min
Onset time of convulsions and survival time, in words ([1]; 100 mg/kg): prolonged onset time of convulsions, survival time significantly
Survival rate of ischemic animals, in words ([1]; 100 mg/kg): increased survival rate of ischemic animals
Onset time of convulsions [1, 8]: 306.9 ± 17.1 min
Recovery time of righting reflex [1, 8]: 36.3 ± 16.7 min
Survival rate [1, 8]: 100%
Survival time [1, 8]: 420.0 ± 0.0 min
Duration of the effect ([4]; 20 mg/kg p.o.): > 90 min
Onset of the effect ([4]; 20 mg/kg p.o.): 5 min
Duration of the effect ([4]; 30 mg/kg p.o.): > 90 min
Onset of the effect ([4]; 30 mg/kg p.o.): 5 min
Duration of the effect ([4]; 100 mg/kg p.o.): > 90 min
Onset of the effect ([4]; 100 mg/kg p.o.): 5 min
inhibition in vivo at 20 mg/kg ([4]; Rattus norvegicus, po, 20 mg/kg p.o., read-out: Maximum inhibition): 60%
inhibition in vivo at 30 mg/kg [4, 11]: 90%
inhibition in vivo at 100 mg/kg ([4]; Rattus norvegicus, po, 100 mg/kg p.o., read-out: Maximum inhibition): 90%
Survival time ([6]; 30 mg/kg i.p.): 213.0 ± 27.5 s
Survival time ([6]; 100 mg/kg i.p.): 446.7 ± 36.9 s

Compound: NC(=O)OCC(O)COc1cc(-c2cccc(Cl)c2)on1 (stereo not drawn) [Example 4, 3-(3-Carbamoyloxy-2-hydroxypropoxy)-5-(m-chlorophenyl)isoxazole]
Onset time of convulsions and survival time, in words ([1]; 100 mg/kg): prolonged onset time of convulsions, survival time significantly
Onset time of convulsions [1, 8]: 97.6 ± 18.0 min
Recovery time of righting reflex [1, 8]: 10.1 ± 1.8 min
Survival rate [1, 8]: 44.4%
Survival time [1, 8]: 322.4 ± 34.8 min
Onset time of convulsions [2]: 233.9 min
Recovery time of righting reflex [2]: 115.7 min
Survival time [2]: 344.2 min
Survival time ([6]; 100 mg/kg i.p.): 178.9 ± 15.0 s

Compound: Cl.OC(COc1cc(-c2ccccc2)on1)CN1CCOCC1 (stereo not drawn) [Example 20, 3-(2-Hydroxy-3-morpholinopropoxy)-5-phenylisoxazole hydrochloride]
Onset time of convulsions and survival time, in words ([1]; 30 mg/kg): prolonged onset time of convulsions, survival time significantly
Onset time of convulsions [1, 7]: 71.9 ± 9.3 min
Recovery time of righting reflex [1, 7]: 6.5 ± 0.6 min
Survival rate [1, 7]: 36.4%
Survival time [1, 7]: 295.9 ± 32.3 min
Onset time of convulsions and survival time, in words ([1]; 100 mg/kg): prolonged onset time of convulsions, survival time significantly
Onset time of convulsions [1, 8]: 176.7 ± 25.8 min
Recovery time of righting reflex [1, 8]: 6.9 ± 0.9 min
Survival rate [1, 8]: 63.6%
Survival time [1, 8]: 371.9 ± 26.3 min
Survival time ([6]; 30 mg/kg i.p.): 124.6 ± 15.4 s
Survival time ([6]; 100 mg/kg i.p.): 349.5 ± 59.1 s
